Source: the supplement of paper PMC10307832

Tests used:
Test in all cases: relative viability (nuclei count vs DMSO), 5 days (fraction); higher = more cells survive
[1] = tested on: ABC-1
How it was run: (§1)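 The day after seeding in 1536-well plates, lung cancer cell lines were treated by pin tool with a single drug, or with a fixed anchor-drug dose together with five library-drug doses (not always all listed) in √10 steps. After 5 days, a combined fix-and-stain solution (final 0.05% Triton X-100, 1% formaldehyde, 1 ug/ml Hoechst) was added. Nuclei counted on 4× images gave relative viability as treated counts over vehicle counts, reported as the median of duplicate plates.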

[2] = tested on: HARA
How it was run: as §1

[3] = tested on: NCI-H322M
How it was run: as §1

[4] = tested on: HOP-62
How it was run: as §1

[5] = tested on: NCI-H1993
How it was run: as §1

[6] = tested on: NCI-H2170
How it was run: as §1

[7] = tested on: NCI-H2009
How it was run: as §1

[8] = tested on: NCI-H2228
How it was run: as §1

[9] = tested on: NCI-H522
How it was run: as §1

[10] = tested on: EMC-BAC-2
How it was run: as §1

[11] = tested on: NCI-H3122
How it was run: as §1

[12] = tested on: SK-MES-1
How it was run: as §1

[13] = tested on: LK-2
How it was run: as §1

[14] = tested on: SW 1573
How it was run: as §1

[15] = tested on: NCI-H596
How it was run: as §1

[16] = tested on: NCI-H1944
How it was run: as §1

[17] = tested on: LXF-289
How it was run: as §1

[18] = tested on: A-427
How it was run: as §1

[19] = tested on: NCI-H727
How it was run: as §1

[20] = tested on: PC-3 [JPC-3]
How it was run: as §1

[21] = tested on: SW 900
How it was run: as §1

Structure (SMILES): O=c1cc(-c2cccc3c2Sc2ccccc2S3)oc(N2CCOCC2)c1 + Cc1cc(Nc2cc(N3CCN(C)CC3)nc(Sc3ccc(NC(=O)C4CC4)cc3)n2)n[nH]1 [Tozasertib] (partner 0.1 µM)
- relative viability ([1]; first compound 0.08 µM): 0.184
- relative viability ([1]; first compound 0.253 µM): 0.203
- relative viability ([1]; first compound 0.8 µM): 0.158
- relative viability ([1]; first compound 2.53 µM): 0.181
- relative viability ([1]; first compound 8 µM): 0.156
- relative viability ([2]; first compound 0.08 µM): 0.099
- relative viability ([2]; first compound 0.253 µM): 0.0933
- relative viability ([2]; first compound 0.8 µM): 0.112
- relative viability ([2]; first compound 2.53 µM): 0.133
- relative viability ([2]; first compound 8 µM): 0.0897
- relative viability ([3]; first compound 0.08 µM): 0.494
- relative viability ([3]; first compound 0.253 µM): 0.446
- relative viability ([3]; first compound 0.8 µM): 0.464
- relative viability ([3]; first compound 2.53 µM): 0.449
- relative viability ([3]; first compound 8 µM): 0.467
- relative viability ([4]; first compound 0.08 µM): 0.452
- relative viability ([4]; first compound 0.253 µM): 0.362
- relative viability ([4]; first compound 0.8 µM): 0.426
- relative viability ([4]; first compound 2.53 µM): 0.324
- relative viability ([4]; first compound 8 µM): 0.397
- relative viability ([5]; first compound 0.08 µM): 0.518
- relative viability ([5]; first compound 0.253 µM): 0.55
- relative viability ([5]; first compound 0.8 µM): 0.516
- relative viability ([5]; first compound 2.53 µM): 0.559
- relative viability ([5]; first compound 8 µM): 0.621
- relative viability ([6]; first compound 0.08 µM): 0.78
- relative viability ([6]; first compound 0.253 µM): 0.739
- relative viability ([6]; first compound 0.8 µM): 0.894
- relative viability ([6]; first compound 2.53 µM): 0.715
- relative viability ([6]; first compound 8 µM): 0.676
- relative viability ([7]; first compound 0.08 µM): 0.74
- relative viability ([7]; first compound 0.253 µM): 0.725
- relative viability ([7]; first compound 0.8 µM): 0.8
- relative viability ([7]; first compound 2.53 µM): 0.737
- relative viability ([7]; first compound 8 µM): 0.578
- relative viability ([8]; first compound 0.08 µM): 0.213
- relative viability ([8]; first compound 0.253 µM): 0.186
- relative viability ([8]; first compound 0.8 µM): 0.248
- relative viability ([8]; first compound 2.53 µM): 0.163
- relative viability ([8]; first compound 8 µM): 0.18
- relative viability ([9]; first compound 0.08 µM): 0.632
- relative viability ([9]; first compound 0.253 µM): 0.544
- relative viability ([9]; first compound 0.8 µM): 0.512
- relative viability ([9]; first compound 2.53 µM): 0.651
- relative viability ([9]; first compound 8 µM): 0.562
- relative viability ([10]; first compound 0.08 µM): 0.242
- relative viability ([10]; first compound 0.253 µM): 0.299
- relative viability ([10]; first compound 0.8 µM): 0.295
- relative viability ([10]; first compound 2.53 µM): 0.257
- relative viability ([10]; first compound 8 µM): 0.293
- relative viability ([11]; first compound 0.08 µM): 0.488
- relative viability ([11]; first compound 0.253 µM): 0.404
- relative viability ([11]; first compound 0.8 µM): 0.355
- relative viability ([11]; first compound 2.53 µM): 0.424
- relative viability ([11]; first compound 8 µM): 0.479
- relative viability ([12]; first compound 0.08 µM): 0.902
- relative viability ([12]; first compound 0.253 µM): 1.04
- relative viability ([12]; first compound 0.8 µM): 0.879
- relative viability ([12]; first compound 2.53 µM): 0.848
- relative viability ([12]; first compound 8 µM): 0.852
- relative viability ([13]; first compound 0.08 µM): 0.184
- relative viability ([13]; first compound 0.253 µM): 0.165
- relative viability ([13]; first compound 0.8 µM): 0.176
- relative viability ([13]; first compound 2.53 µM): 0.162
- relative viability ([13]; first compound 8 µM): 0.16
- relative viability ([14]; first compound 0.08 µM): 0.175
- relative viability ([14]; first compound 0.253 µM): 0.186
- relative viability ([14]; first compound 0.8 µM): 0.197
- relative viability ([14]; first compound 2.53 µM): 0.175
- relative viability ([14]; first compound 8 µM): 0.125
- relative viability ([15]; first compound 0.08 µM): 0.758
- relative viability ([15]; first compound 0.253 µM): 0.892
- relative viability ([15]; first compound 0.8 µM): 1.08
- relative viability ([15]; first compound 2.53 µM): 0.762
- relative viability ([15]; first compound 8 µM): 0.997
- relative viability ([16]; first compound 0.08 µM): 0.252
- relative viability ([16]; first compound 0.253 µM): 0.256
- relative viability ([16]; first compound 0.8 µM): 0.23
- relative viability ([16]; first compound 2.53 µM): 0.24
- relative viability ([16]; first compound 8 µM): 0.232
- relative viability ([17]; first compound 0.08 µM): 0.186
- relative viability ([17]; first compound 0.253 µM): 0.164
- relative viability ([17]; first compound 0.8 µM): 0.223
- relative viability ([17]; first compound 2.53 µM): 0.15
- relative viability ([17]; first compound 8 µM): 0.17
- relative viability ([18]; first compound 0.08 µM): 0.176
- relative viability ([18]; first compound 0.253 µM): 0.179
- relative viability ([18]; first compound 0.8 µM): 0.196
- relative viability ([18]; first compound 8 µM): 0.204
- relative viability ([19]; first compound 0.08 µM): 0.656
- relative viability ([19]; first compound 0.253 µM): 0.633
- relative viability ([19]; first compound 0.8 µM): 0.609
- relative viability ([19]; first compound 2.53 µM): 0.535
- relative viability ([19]; first compound 8 µM): 0.668
- relative viability ([20]; first compound 0.08 µM): 0.861
- relative viability ([20]; first compound 0.253 µM): 0.871
- relative viability ([20]; first compound 0.8 µM): 0.827
- relative viability ([20]; first compound 2.53 µM): 0.805
- relative viability ([20]; first compound 8 µM): 0.714
- relative viability ([21]; first compound 0.08 µM): 0.754
- relative viability ([21]; first compound 0.253 µM): 0.543
- relative viability ([21]; first compound 0.8 µM): 0.433
- relative viability ([21]; first compound 2.53 µM): 0.486
- relative viability ([21]; first compound 8 µM): 0.5
